Reference: patent publication US8901118B2, “Compounds and methods for kinase modulation, and indications therefor” (Plexxikon Inc., priority 2010, dated 2014)
pIC50: −log10 of the molar value.

Legend:
c-Kit kinase = c-Kit kinase (Homo sapiens, UniProt P10721); assay: c-Kit kinase biochemical activity assay (AlphaScreen, biotin-(E4Y)10 phosphorylation); conditions: 100 μM ATP; read-out: Biochemical Inhibition IC50 Kit
Summary of the method: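 AlphaScreen read-out (streptavidin donor, anti-phosphotyrosine PY20 acceptor beads, EDTA stop) of c-Kit activity. Reaction: 0.75 ng kinase, 100 µM ATP, 30 nM biotin-(E4Y)10, 25 mM HEPES pH 7.5, 2 mM MgCl2, 2 mM MnCl2, 5% DMSO, 1 h room temperature. IC50 derived over an 8-point, two-fold dilution series.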

TrkA kinase = TrkA kinase (Homo sapiens, UniProt P04629); assay: TrkA kinase biochemical activity assay (AlphaScreen); conditions: 100 μM ATP; read-out: Biochemical Inhibition IC50 TrkA
Summary of the method: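 IC50 values come from AlphaScreen PY20/streptavidin bead signal versus compound concentration. Kinase reaction: 1 ng/well TrkA, 100 μM ATP, 30 nM biotin-(E4Y)10 substrate, Mn2+-containing Hepes buffer pH 7.5, 5% DMSO, 40 min, room temperature; TrkC assayed by the same approach.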

Chain of TrkA kinase (P04629 33-796): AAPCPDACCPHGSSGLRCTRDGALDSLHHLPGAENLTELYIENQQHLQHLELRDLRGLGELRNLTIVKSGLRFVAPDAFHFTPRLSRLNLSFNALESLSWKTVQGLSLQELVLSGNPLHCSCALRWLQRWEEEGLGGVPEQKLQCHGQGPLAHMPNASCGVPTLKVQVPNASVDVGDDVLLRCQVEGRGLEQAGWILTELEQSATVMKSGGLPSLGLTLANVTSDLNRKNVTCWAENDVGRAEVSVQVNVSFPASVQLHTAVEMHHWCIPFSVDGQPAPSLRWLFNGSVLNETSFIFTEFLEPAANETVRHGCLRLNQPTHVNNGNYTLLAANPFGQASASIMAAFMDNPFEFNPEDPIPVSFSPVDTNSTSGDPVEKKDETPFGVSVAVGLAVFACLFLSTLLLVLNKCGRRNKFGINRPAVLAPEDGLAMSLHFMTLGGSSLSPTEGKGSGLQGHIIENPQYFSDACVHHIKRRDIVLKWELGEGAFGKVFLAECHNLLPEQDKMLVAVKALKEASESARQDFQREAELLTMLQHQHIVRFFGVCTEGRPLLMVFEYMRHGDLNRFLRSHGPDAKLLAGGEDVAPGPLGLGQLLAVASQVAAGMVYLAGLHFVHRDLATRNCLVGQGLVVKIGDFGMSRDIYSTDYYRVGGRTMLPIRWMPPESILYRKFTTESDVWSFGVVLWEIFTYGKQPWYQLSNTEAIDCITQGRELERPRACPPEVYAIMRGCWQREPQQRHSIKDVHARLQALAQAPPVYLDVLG
Chain of c-Kit kinase (P10721 26-976): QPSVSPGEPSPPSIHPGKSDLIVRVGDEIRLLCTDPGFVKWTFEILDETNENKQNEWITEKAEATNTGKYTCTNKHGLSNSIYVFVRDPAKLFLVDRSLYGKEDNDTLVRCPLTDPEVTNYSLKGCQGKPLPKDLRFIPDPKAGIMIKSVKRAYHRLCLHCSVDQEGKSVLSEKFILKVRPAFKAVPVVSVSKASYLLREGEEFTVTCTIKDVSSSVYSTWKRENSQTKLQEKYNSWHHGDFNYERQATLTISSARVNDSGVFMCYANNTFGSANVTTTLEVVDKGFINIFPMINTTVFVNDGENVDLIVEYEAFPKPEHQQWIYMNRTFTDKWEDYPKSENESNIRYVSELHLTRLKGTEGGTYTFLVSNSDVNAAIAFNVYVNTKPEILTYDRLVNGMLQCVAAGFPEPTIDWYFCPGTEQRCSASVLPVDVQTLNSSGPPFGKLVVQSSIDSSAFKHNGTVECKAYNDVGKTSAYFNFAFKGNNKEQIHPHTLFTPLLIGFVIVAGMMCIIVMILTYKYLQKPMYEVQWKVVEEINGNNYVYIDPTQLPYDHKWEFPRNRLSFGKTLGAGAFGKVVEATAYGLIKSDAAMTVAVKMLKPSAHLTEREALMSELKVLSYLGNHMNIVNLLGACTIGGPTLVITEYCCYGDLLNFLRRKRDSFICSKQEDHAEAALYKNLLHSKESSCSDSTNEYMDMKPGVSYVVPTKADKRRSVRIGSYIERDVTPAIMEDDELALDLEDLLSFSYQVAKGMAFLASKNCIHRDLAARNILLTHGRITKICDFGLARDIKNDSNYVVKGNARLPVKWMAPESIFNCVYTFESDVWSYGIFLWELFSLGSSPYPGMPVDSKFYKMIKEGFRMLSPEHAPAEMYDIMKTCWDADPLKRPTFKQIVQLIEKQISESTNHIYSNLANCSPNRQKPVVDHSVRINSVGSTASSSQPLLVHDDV

In the case of CCCNc1ncnc2[nH]cc(C(=O)c3ccc(Nc4cncc(OC)c4)nc3F)c12 [Compound P-4105, [2-fluoro-6-[(5-methoxy-3-pyridyl)amino]-3-pyridyl]-[4-(propylamino)-7H-pyrrolo[2,3-d]pyrimidin-5-yl]methanone], the pIC50 (c-Kit kinase) was < 6.00 and the pIC50 (TrkA kinase) was > 7.00.

With COc1cncc(Nc2ccc(C(=O)c3c[nH]c4ncnc(NC(C)C)c34)c(F)n2)c1 [Compound P-4106, [2-fluoro-6-[(5-methoxy-3-pyridyl)amino]-3-pyridyl]-[4-(isopropylamino)-7H-pyrrolo[2,3-d]pyrimidin-5-yl]methanone] the pIC50 (c-Kit kinase) was > 6.00 and the pIC50 (TrkA kinase) was > 8.00.

With COc1cncc(Nc2ccc(C(=O)c3c[nH]c4ncnc(NC5CC5)c34)c(F)n2)c1 [Compound P-4107, [4-(cyclopropylamino)-7H-pyrrolo[2,3-d]pyrimidin-5-yl]-[2-fluoro-6-[(5-methoxy-3-pyridyl)amino]-3-pyridyl]methanone] the pIC50 (c-Kit kinase) was > 7.00 and the pIC50 (TrkA kinase) was > 8.00.

With CNc1ncnc2[nH]cc(C(=O)c3ccc(Nc4cncc(OC)c4)nc3F)c12 [Compound P-4108, [2-fluoro-6-[(5-methoxy-3-pyridyl)amino]-3-pyridyl]-[4-(methylamino)-7H-pyrrolo[2,3-d]pyrimidin-5-yl]methanone] the pIC50 (c-Kit kinase) was > 6.00 and the pIC50 (TrkA kinase) was > 7.00.

CC(C)Nc1ncnc2[nH]cc(C(=O)c3ccc(NC4CCCCC4)nc3Cl)c12 [Compound P-4109, [2-chloro-6-(cyclohexylamino)-3-pyridyl]-[4-(isopropylamino)-7H-pyrrolo[2,3-d]pyrimidin-5-yl]methanone] was tested, and the pIC50 (c-Kit kinase) was > 6.00 and the pIC50 (TrkA kinase) was > 7.00.

With CNc1ncnc2[nH]cc(C(=O)c3ccc(NC4CCCCC4)nc3Cl)c12 [Compound P-4110, [2-chloro-6-(cyclohexylamino)-3-pyridyl]-[4-(methylamino)-7H-pyrrolo[2,3-d]pyrimidin-5-yl]methanone] the pIC50 (c-Kit kinase) was > 6.00 and the pIC50 (TrkA kinase) was > 6.00.

Cc1ccc(Nc2ccc(C(=O)c3c[nH]c4ncnc(NC5CCCCC5)c34)c(F)n2)cn1 [Compound P-4111, [4-(cyclohexylamino)-7H-pyrrolo[2,3-d]pyrimidin-5-yl]-[2-fluoro-6-[(6-methyl-3-pyridyl)amino]-3-pyridyl]methanone] was tested, and the pIC50 (c-Kit kinase) was > 6.00 and the pIC50 (TrkA kinase) was > 7.00.

For Cc1ccc(Nc2ccc(C(=O)c3c[nH]c4ncnc(NCC(F)(F)F)c34)c(F)n2)cn1 [Compound P-4112, [2-fluoro-6-[(6-methyl-3-pyridyl)amino]-3-pyridyl]-[4-(2,2,2-trifluoroethylamino)-7H-pyrrolo[2,3-d]pyrimidin-5-yl]methanone], the pIC50 (c-Kit kinase) was > 6.00 and the pIC50 (TrkA kinase) was > 7.00.

With Cc1ccc(Nc2ccc(C(=O)c3c[nH]c4ncnc(NCC5CC5)c34)c(F)n2)cn1 [Compound P-4113, [4-(cyclopropylmethylamino)-7H-pyrrolo[2,3-d]pyrimidin-5-yl]-[2-fluoro-6-[(6-methyl-3-pyridyl)amino]-3-pyridyl]methanone] the pIC50 (c-Kit kinase) was > 7.00 and the pIC50 (TrkA kinase) was > 8.00.

CCCNc1ncnc2[nH]cc(C(=O)c3ccc(Nc4ccc(C)nc4)nc3F)c12 [Compound P-4114, [2-fluoro-6-[(6-methyl-3-pyridyl)amino]-3-pyridyl]-[4-(propylamino)-7H-pyrrolo[2,3-d]pyrimidin-5-yl]methanone] was tested, and the pIC50 (c-Kit kinase) was > 7.00 and the pIC50 (TrkA kinase) was > 8.00.

For CNc1ncnc2[nH]cc(C(=O)c3ccc(Nc4ccc(C)nc4)nc3F)c12 [Compound P-4115, [2-fluoro-6-[(6-methyl-3-pyridyl)amino]-3-pyridyl]-[4-(methylamino)-7H-pyrrolo[2,3-d]pyrimidin-5-yl]methanone], the pIC50 (c-Kit kinase) was > 7.00 and the pIC50 (TrkA kinase) was > 8.00.

With CCc1ccc(Nc2ccc(C(=O)c3c[nH]c4ncnc(NC5CCOCC5)c34)c(F)n2)cn1 [Compound P-4116, [6-[(6-ethyl-3-pyridyl)amino]-2-fluoro-3-pyridyl]-[4-(tetrahydropyran-4-ylamino)-7H-pyrrolo[2,3-d]pyrimidin-5-yl]methanone] the pIC50 (c-Kit kinase) was > 7.00 and the pIC50 (TrkA kinase) was > 8.00.

With CCc1ccc(Nc2ccc(C(=O)c3c[nH]c4ncnc(NC(C)C)c34)c(F)n2)cn1 [Compound P-4117, [6-[(6-ethyl-3-pyridyl)amino]-2-fluoro-3-pyridyl]-[4-(isopropylamino)-7H-pyrrolo[2,3-d]pyrimidin-5-yl]methanone] the pIC50 (c-Kit kinase) was > 7.00 and the pIC50 (TrkA kinase) was > 8.00.

In the case of CCc1ccc(Nc2ccc(C(=O)c3c[nH]c4ncnc(NCC5CC5)c34)c(F)n2)cn1 [Compound P-4118, [4-(cyclopropylmethylamino)-7H-pyrrolo[2,3-d]pyrimidin-5-yl]-[6-[(6-ethyl-3-pyridyl)amino]-2-fluoro-3-pyridyl]methanone], the pIC50 (c-Kit kinase) was > 7.00 and the pIC50 (TrkA kinase) was > 8.00.

In the case of CCc1ccc(Nc2ccc(C(=O)c3c[nH]c4ncnc(NCCOC)c34)c(F)n2)cn1 [Compound P-4119, [6-[(6-ethyl-3-pyridyl)amino]-2-fluoro-3-pyridyl]-[4-(2-methoxyethylamino)-7H-pyrrolo[2,3-d]pyrimidin-5-yl]methanone], the pIC50 (c-Kit kinase) was > 8.00 and the pIC50 (TrkA kinase) was > 8.00.

With CCc1ccc(Nc2ccc(C(=O)c3c[nH]c4ncnc(NCC(F)(F)F)c34)c(F)n2)cn1 [Compound P-4120, [6-[(6-ethyl-3-pyridyl)amino]-2-fluoro-3-pyridyl]-[4-(2,2,2-trifluoroethylamino)-7H-pyrrolo[2,3-d]pyrimidin-5-yl]methanone] the pIC50 (c-Kit kinase) was > 7.00 and the pIC50 (TrkA kinase) was > 7.00.

In the case of CCc1ccc(Nc2ccc(C(=O)c3c[nH]c4ncnc(NCC(C)C)c34)c(F)n2)cn1 [Compound P-4121, [6-[(6-ethyl-3-pyridyl)amino]-2-fluoro-3-pyridyl]-[4-(isobutylamino)-7H-pyrrolo[2,3-d]pyrimidin-5-yl]methanone], the pIC50 (c-Kit kinase) was > 8.00 and the pIC50 (TrkA kinase) was > 7.00.

CCCNc1ncnc2[nH]cc(C(=O)c3ccc(Nc4ccc(CC)nc4)nc3F)c12 [Compound P-4122, [6-[(6-ethyl-3-pyridyl)amino]-2-fluoro-3-pyridyl]-[4-(propylamino)-7H-pyrrolo[2,3-d]pyrimidin-5-yl]methanone] was tested, and the pIC50 (c-Kit kinase) was > 8.00 and the pIC50 (TrkA kinase) was > 8.00.

CCNc1ncnc2[nH]cc(C(=O)c3ccc(Nc4ccc(CC)nc4)nc3F)c12 [Compound P-4123, [4-(ethylamino)-7H-pyrrolo[2,3-d]pyrimidin-5-yl]-[6-[(6-ethyl-3-pyridyl)amino]-2-fluoro-3-pyridyl]methanone] was tested, and the pIC50 (c-Kit kinase) was > 8.00 and the pIC50 (TrkA kinase) was > 8.00.

For CCc1ccc(Nc2ccc(C(=O)c3c[nH]c4ncnc(NC)c34)c(F)n2)cn1 [Compound P-4124, [6-[(6-ethyl-3-pyridyl)amino]-2-fluoro-3-pyridyl]-[4-(methylamino)-7H-pyrrolo[2,3-d]pyrimidin-5-yl]methanone], the pIC50 (c-Kit kinase) was > 8.00 and the pIC50 (TrkA kinase) was > 8.00.

For CCc1ccc(Nc2ccc(C(=O)c3c[nH]c4ncnc(NC5CC5)c34)c(F)n2)cn1 [Compound P-4125, [4-(cyclopropylamino)-7H-pyrrolo[2,3-d]pyrimidin-5-yl]-[6-[(6-ethyl-3-pyridyl)amino]-2-fluoro-3-pyridyl]methanone], the pIC50 (c-Kit kinase) was > 7.00 and the pIC50 (TrkA kinase) was > 8.00.

In the case of COc1ccc(Nc2ccc(C(=O)c3c[nH]c4ncnc(NC5CC5)c34)c(F)n2)cn1 [Compound P-4126, [4-(cyclopropylamino)-7H-pyrrolo[2,3-d]pyrimidin-5-yl]-[2-fluoro-6-[(6-methoxy-3-pyridyl)amino]-3-pyridyl]methanone], the pIC50 (c-Kit kinase) was > 7.00 and the pIC50 (TrkA kinase) was > 8.00.

For Fc1cc(Cc2c[nH]c3ncnc(NC4CC4)c23)cnc1NC1CCC(F)(F)CC1 [Compound P-4127, N-cyclopropyl-5-[[6-[(4,4-difluorocyclohexyl)amino]-5-fluoro-3-pyridyl]methyl]-7H-pyrrolo[2,3-d]pyrimidin-4-amine], the pIC50 (c-Kit kinase) was > 6.00 and the pIC50 (TrkA kinase) was > 7.00.
